Assay results as given in patent US5393742A, “Preparation for treating renal disease” (MECT Corporation, priority 1990, dated 1995).
Read-outs that look alike come from different tables or passages of the source.

Experiments:
[1] = system: Puromycin aminonucleoside (PAN) induced nephritis; type: in vivo, Male Sprague-Dawley (SD) rats; conditions: for Kidney Moist Weight / Weight Gain Rate / Urinary Protein Content: 3 times a day; for Kidney Moist Weight / Weight Gain Rate: 14 days after PAN
Protocol: Effect on Puromycin aminonucleoside (PAN) induced nephritis, i.e. PAN induced nephrosis or nephrotic syndrome:
Male Sprague-Dawley (SD) rats weighing 160-180 g were used.
As the nephritis, i.e. nephrosis or nephrotic syndrome, causing substance, PAN (made by Sigma Co., Ltd.) was used. As the test compound, sodium N-acetylneuraminate (made by MECT Corporation) was used.
PAN was intraperitoneally administered in an amount of 80 mg per 1 kg of body weight to rats to cause nephritis, i.e. nephrosis or nephrotic syndrome. Then, the test compound (Groups I, II or III) or physiological saline solution (Group IV) was intraperitoneally administered 3 times a day (morning, noon and evening) for 14 consecutive days immediately after treatment with PAN as follows. As a positive control, methylprednisolone was subcutaneously administered to rats of Group V once a day (noon) for 14 consecutive days immediately after treatment with PAN. Moreover, 3, 6, 9 and 13 days after treatment with PAN, 5 ml water was loaded, and the urine was collected for 6 hours. Fourteen days after treatment with PAN, autopsies were made, the kidneys were extirpated and their moist weights were measured.
Group I: 0.1 mg Sodium N-acetylneuraminate per 1 kg of body weight was administered.
Group II: 0.5 mg Sodium N-acetylneuraminate per 1 kg of body weight was administered.
Group III: 1.0 mg Sodium N-acetylneuraminate per 1 kg of body weight was administered.
Group IV: 2.5 ml Physiological saline solution per 1 kg of body weight was administered.
Group V: 2 mg Methylprednisolone per 1 kg of body weight was administered.
Group VI: Normal rats (no drug was given).
Regarding the results of therapeutic effect for treating renal disease (nephrotic syndrome) of the given NANA compound per Example 1 above, it will be appreciated that the test compound sodium N-acetylneuraminate (Groups I, II and III) was dissolved in physiological saline and intraperitoneally administered, compared to intraperitoneal administration of physiological saline alone (Group IV) and subcutaneous administration of methylprednisolone (Group V).

Male ddy mice = experiment: Simplified acute toxicity test of N-acetylneuraminates in mice by intravenous injection; type: in vivo
Protocol: Simplified acute toxicity test:
A simplified acute toxicity test of N-acetylneuraminates in mice by intravenous injection was carried out as follows.
Lithium-, potassium-, barium- and magnesium- salts of N-acetylneuraminic acid were used (all were from MECT Corporation).
Body weights at the start of the test: 17.7-21.1 g
The number of animals at each level: 3 mice
(3) Room temperature: 23±1° C. - Humidity: 55±7%
The above-mentioned test compounds were dissolved in physiological saline solution to make a 0.2 ml solution per 20 g of body weight in a mouse as an injection fluid and injected into the tail vein. The doses were 500, 1,000 and 2,000 mg/kg.

| Compound | The number of deaths per day course (Male ddy mice; 500 mg/kg i.v., 1 hrs) | The number of deaths per day course (Male ddy mice; 500 mg/kg i.v., 3 hrs) | The number of deaths per day course (Male ddy mice; 500 mg/kg i.v., 6 hrs) | The number of deaths per day course (Male ddy mice; 500 mg/kg i.v., 24 hrs) | The number of deaths per day course (Male ddy mice; 500 mg/kg i.v., 2 days) | The number of deaths per day course (Male ddy mice; 500 mg/kg i.v., 3 days) | The number of deaths per day course (Male ddy mice; 500 mg/kg i.v., 4 days) | The number of deaths per day course (Male ddy mice; 500 mg/kg i.v., 5 days) | The number of deaths per day course (Male ddy mice; 500 mg/kg i.v., 6 days) | Final Lethality (Male ddy mice; 500 mg/kg i.v., 7 days) | The number of deaths per day course (Male ddy mice; 500 mg/kg i.v., 7 days) | Final Lethality (Male ddy mice; 1000 mg/kg i.v., 7 days) | The number of deaths per day course (Male ddy mice; 1000 mg/kg i.v., 7 days) | The number of deaths per day course (Male ddy mice; 1000 mg/kg i.v., 1 hrs) | The number of deaths per day course (Male ddy mice; 1000 mg/kg i.v., 3 hrs) | The number of deaths per day course (Male ddy mice; 1000 mg/kg i.v., 6 hrs) | The number of deaths per day course (Male ddy mice; 1000 mg/kg i.v., 24 hrs) | The number of deaths per day course (Male ddy mice; 1000 mg/kg i.v., 2 days) | The number of deaths per day course (Male ddy mice; 1000 mg/kg i.v., 3 days) | Final Lethality (Male ddy mice; 2000 mg/kg i.v., 7 days) | further results |
| --- | --- | --- | --- | --- | --- | --- | --- | --- | --- | --- | --- | --- | --- | --- | --- | --- | --- | --- | --- | --- | --- |
| CC(=O)N[C@H]1[C@H]([C@H](O)[C@H](O)CO)OC(O)(C(=O)[O-])C[C@@H]1O.[Na+] (stereo partly shown) |  |  |  |  |  |  |  |  |  |  |  |  |  |  |  |  |  |  |  |  | Kidney Moist Weight ([1]; 0.1 mg/kg i.p.): 0.47 ± 0.02 g/100 g; Weight Gain Rate ([1]; 0.1 mg/kg i.p.): 127.1 ± 2.0%; Kidney Moist Weight ([1]; 0.5 mg/kg i.p.): 0.44 ± 0.02 g/100 g; Weight Gain Rate ([1]; 0.5 mg/kg i.p.): 128.4 ± 1.8%; Kidney Moist Weight ([1]; 1.0 mg/kg i.p.): 0.42 ± 0.02 g/100 g; Weight Gain Rate ([1]; 1.0 mg/kg i.p.): 131.3 ± 1.9%; Urinary Protein Content ([1]; 3rd Day, 0.1 mg/kg i.p.): 14.1 ± 1.1 mg/24 hours; Urinary Protein Content ([1]; 3rd Day, 0.5 mg/kg i.p.): 11.3 ± 0.8 mg/24 hours; Urinary Protein Content ([1]; 3rd Day, 1.0 mg/kg i.p.): 5.1 ± 0.4 mg/24 hours; Urinary Protein Content ([1]; 6th Day, 0.1 mg/kg i.p.): 83.4 ± 8.6 mg/24 hours; Urinary Protein Content ([1]; 6th Day, 0.5 mg/kg i.p.): 49.1 ± 13.6 mg/24 hours; Urinary Protein Content ([1]; 6th Day, 1.0 mg/kg i.p.): 50.5 ± 10.7 mg/24 hours; Urinary Protein Content ([1]; 9th Day, 0.1 mg/kg i.p.): 99.6 ± 14.2 mg/24 hours; Urinary Protein Content ([1]; 9th Day, 0.5 mg/kg i.p.): 59.9 ± 14.7 mg/24 hours; Urinary Protein Content ([1]; 9th Day, 1.0 mg/kg i.p.): 51.2 ± 15.6 mg/24 hours; Urinary Protein Content ([1]; 13th Day, 0.1 mg/kg i.p.): 109.9 ± 12.9 mg/24 hours; Urinary Protein Content ([1]; 13th Day, 0.5 mg/kg i.p.): 94.5 ± 30.4 mg/24 hours; Urinary Protein Content ([1]; 13th Day, 1.0 mg/kg i.p.): 77.9 ± 17.9 mg/24 hours; Systemic side effect (in words) ([1]; PAN rats, weight gain as index of systemic effect): does not show such side effect; Effect on renal disease, nephrosis or nephrotic syndrome (in words) ([1]; PAN-induced nephritis): has a therapeutic effect on renal disease |
| CC(=O)N[C@H]1[C@H]([C@H](O)[C@H](O)CO)OC(O)(C(=O)O)C[C@@H]1O (stereo partly shown) [Barium N-acetylneuraminate] | 3 | 0 | 0 | 0 | 0 | 0 | 0 | 0 | 0 | 3/3 | 0 | 3/3 | 0 | 3 | 0 | 0 | 0 | 0 | 0 | 3/3 | Deaths (in words) (Male ddy mice; 500 mg/kg i.v.): all 3 of the 3 mice; The number of deaths per day course (Male ddy mice; 1000 mg/kg i.v., 4 days): 0; The number of deaths per day course (Male ddy mice; 1000 mg/kg i.v., 5 days): 0; The number of deaths per day course (Male ddy mice; 1000 mg/kg i.v., 6 days): 0; The number of deaths per day course (Male ddy mice; 2000 mg/kg i.v., 7 days): 0; The number of deaths per day course (Male ddy mice; 2000 mg/kg i.v., 1 hrs): 3; The number of deaths per day course (Male ddy mice; 2000 mg/kg i.v., 3 hrs): 0; The number of deaths per day course (Male ddy mice; 2000 mg/kg i.v., 6 hrs): 0; The number of deaths per day course (Male ddy mice; 2000 mg/kg i.v., 24 hrs): 0; The number of deaths per day course (Male ddy mice; 2000 mg/kg i.v., 2 days): 0; The number of deaths per day course (Male ddy mice; 2000 mg/kg i.v., 3 days): 0; The number of deaths per day course (Male ddy mice; 2000 mg/kg i.v., 4 days): 0; The number of deaths per day course (Male ddy mice; 2000 mg/kg i.v., 5 days): 0; The number of deaths per day course (Male ddy mice; 2000 mg/kg i.v., 6 days): 0; Deaths (in words) (Male ddy mice; 1,000 and 2,000 mg/kg i.v.): all of the 3 mice died |
| CC(=O)N[C@H]1[C@H]([C@H](O)[C@H](O)CO)OC(O)(C(=O)[O-])C[C@@H]1O.[Li+] (stereo partly shown) [Lithium N-acetylneuraminate] | 0 | 0 | 0 | 0 | 0 | 0 | 0 | 0 | 0 | 0/3 | 0 | 0/3 | 0 | 0 | 0 | 0 | 0 | 0 | 0 | 0/3 | The number of deaths per day course (Male ddy mice; 1000 mg/kg i.v., 4 days): 0; The number of deaths per day course (Male ddy mice; 1000 mg/kg i.v., 5 days): 0; The number of deaths per day course (Male ddy mice; 1000 mg/kg i.v., 6 days): 0; The number of deaths per day course (Male ddy mice; 2000 mg/kg i.v., 7 days): 0; The number of deaths per day course (Male ddy mice; 2000 mg/kg i.v., 1 hrs): 0; The number of deaths per day course (Male ddy mice; 2000 mg/kg i.v., 3 hrs): 0; The number of deaths per day course (Male ddy mice; 2000 mg/kg i.v., 6 hrs): 0; The number of deaths per day course (Male ddy mice; 2000 mg/kg i.v., 24 hrs): 0; The number of deaths per day course (Male ddy mice; 2000 mg/kg i.v., 2 days): 0; The number of deaths per day course (Male ddy mice; 2000 mg/kg i.v., 3 days): 0; The number of deaths per day course (Male ddy mice; 2000 mg/kg i.v., 4 days): 0; The number of deaths per day course (Male ddy mice; 2000 mg/kg i.v., 5 days): 0; The number of deaths per day course (Male ddy mice; 2000 mg/kg i.v., 6 days): 0 |
| CC(=O)N[C@H]1[C@H]([C@H](O)[C@H](O)CO)OC(O)(C(=O)O)C[C@@H]1O (stereo partly shown) [Magnesium N-acetylneuraminate] | 0 | 0 | 0 | 0 | 0 | 0 | 0 | 0 | 0 | 0/3 | 0 | 3/3 |  |  |  |  |  |  |  | 3/3 | Deaths (in words) (Male ddy mice; 1,000 and 2,000 mg/kg i.v.): all of the 3 mice died |
| CC(=O)N[C@H]1[C@H]([C@H](O)[C@H](O)CO)OC(O)(C(=O)[O-])C[C@@H]1O.[K+] (stereo partly shown) [Potassium N-acetylneuraminate] | 0 | 0 | 0 | 0 | 0 | 0 | 0 | 0 | 0 | 0/3 | 0 | 3/3 | 0 | 3 | 0 | 0 | 0 | 0 | 0 | 3/3 | The number of deaths per day course (Male ddy mice; 1000 mg/kg i.v., 4 days): 0; The number of deaths per day course (Male ddy mice; 1000 mg/kg i.v., 5 days): 0; The number of deaths per day course (Male ddy mice; 1000 mg/kg i.v., 6 days): 0; The number of deaths per day course (Male ddy mice; 2000 mg/kg i.v., 7 days): 0; The number of deaths per day course (Male ddy mice; 2000 mg/kg i.v., 1 hrs): 3; The number of deaths per day course (Male ddy mice; 2000 mg/kg i.v., 3 hrs): 0; The number of deaths per day course (Male ddy mice; 2000 mg/kg i.v., 6 hrs): 0; The number of deaths per day course (Male ddy mice; 2000 mg/kg i.v., 24 hrs): 0; The number of deaths per day course (Male ddy mice; 2000 mg/kg i.v., 2 days): 0; The number of deaths per day course (Male ddy mice; 2000 mg/kg i.v., 3 days): 0; The number of deaths per day course (Male ddy mice; 2000 mg/kg i.v., 4 days): 0; The number of deaths per day course (Male ddy mice; 2000 mg/kg i.v., 5 days): 0; The number of deaths per day course (Male ddy mice; 2000 mg/kg i.v., 6 days): 0; Deaths (in words) (Male ddy mice; 1,000 and 2,000 mg/kg i.v.): all of the 3 mice died |
